# Measurements published in US8431541B2, “Alpha-amylase inhibitors: the montbretins and uses thereof” (The University of British Columbia, priority 2007, dated 2013).
# Key:
# [1] = tested on: control and STZ-diabetic rats; experiment: Acute starch tolerance test; format: in vivo, rat
# Procedure: Twenty-four animals were obtained at 200-250 g of body weight and randomly divided into control and diabetic groups. Diabetes was induced by a single intravenous tail vein injection of streptozotocin 60 mg/kg in 0.9% normal saline. Control rats received normal saline injections only. Animals were subsequently divided into acarbose untreated and treated. […] Starch was obtained from Fisher Scientific and a 17.5% suspension was made in distilled water. The dose of starch given was […].
# The animals were fasted overnight. A basal blood sample was collected (50 μl volume) and then at 30, 60, 90 and 120 minutes post drug administration. Starch and starch+acarbose was administered by oral gavage. Blood was centrifuged at 10,000 g×25 minutes and plasma collected for determination of glucose levels using a Beckman Glucose Analyzer II™. There was no difference in body weight among the groups. There was a significant increase in plasma glucose 30 and 60 minutes following starch administration in the diabetic untreated group only.
# The twenty-four animals from Example 6 were used following a wash out period of one week. Animals were divided into montbretin A untreated and treated. The four treatment groups were: control, n=6, control+montbretin A, n=6, diabetic, n=6 and diabetic+montbretin A, n=6. The procedures used in Example 6 were employed. Montbretin A was dissolved in distilled water at a concentration of 10 mg/ml and given at a volume of 1 ml/kg. The dose of montbretin A given was 10 mg/kg. There was no difference in body weight among the groups. There was a significant increase in plasma glucose levels in the diabetic untreated group at 30 and 60 minutes following starch administration.
# A study was done to determine the effect of various amounts of montbretin A and montbretin extracts on plasma glucose levels in response to a starch challenge in STZ-diabetic rats. Diabetic animals used in the previous Examples were used following a wash out period of one week. The six experimental groups were: diabetic (D, n=3) diabetic+montbretin A (5 mg/kg), (DT5, n=3), diabetic+montbretin A (1 mg/kg), (DT1, n=3), diabetic+montbretin A (0.5 mg/kg), (DT0.5, n=3), diabetic+Crocosmia corm methanol extract (5 mg/kg), (DM, n=3) and diabetic+Crocosmia corm ethanol extract (5 mg/kg), (DE, n=2).
# Montbretin A was dissolved in distilled water at a concentration of 5, 1 or 0.5 mg/ml and given at a volume of 1 ml/kg. The methanol extract contained montbretin A at a concentration of 3.2 mg/ml and ethanol extract at a concentration of 1.6 mg/ml. These extracts were dried and resuspended in distilled water. There was no difference in body weight among the groups. […] Diarrhea occurred in 2 out 3 animals given the methanol extract and in 1 out of 2 animals given the ethanol extract. […]
# [2] = biological target: β-galactosidase (E. coli) (Escherichia coli, UniProt P00722); experiment: Glycosidase specificity: β-galactosidase; format: biochemical; settings: at 0.1 μM Montbretin A; read-out: RA (%), Residual Enzyme Activity
# Chain of β-galactosidase (E. coli) (P00722 2-1024 limits assumed): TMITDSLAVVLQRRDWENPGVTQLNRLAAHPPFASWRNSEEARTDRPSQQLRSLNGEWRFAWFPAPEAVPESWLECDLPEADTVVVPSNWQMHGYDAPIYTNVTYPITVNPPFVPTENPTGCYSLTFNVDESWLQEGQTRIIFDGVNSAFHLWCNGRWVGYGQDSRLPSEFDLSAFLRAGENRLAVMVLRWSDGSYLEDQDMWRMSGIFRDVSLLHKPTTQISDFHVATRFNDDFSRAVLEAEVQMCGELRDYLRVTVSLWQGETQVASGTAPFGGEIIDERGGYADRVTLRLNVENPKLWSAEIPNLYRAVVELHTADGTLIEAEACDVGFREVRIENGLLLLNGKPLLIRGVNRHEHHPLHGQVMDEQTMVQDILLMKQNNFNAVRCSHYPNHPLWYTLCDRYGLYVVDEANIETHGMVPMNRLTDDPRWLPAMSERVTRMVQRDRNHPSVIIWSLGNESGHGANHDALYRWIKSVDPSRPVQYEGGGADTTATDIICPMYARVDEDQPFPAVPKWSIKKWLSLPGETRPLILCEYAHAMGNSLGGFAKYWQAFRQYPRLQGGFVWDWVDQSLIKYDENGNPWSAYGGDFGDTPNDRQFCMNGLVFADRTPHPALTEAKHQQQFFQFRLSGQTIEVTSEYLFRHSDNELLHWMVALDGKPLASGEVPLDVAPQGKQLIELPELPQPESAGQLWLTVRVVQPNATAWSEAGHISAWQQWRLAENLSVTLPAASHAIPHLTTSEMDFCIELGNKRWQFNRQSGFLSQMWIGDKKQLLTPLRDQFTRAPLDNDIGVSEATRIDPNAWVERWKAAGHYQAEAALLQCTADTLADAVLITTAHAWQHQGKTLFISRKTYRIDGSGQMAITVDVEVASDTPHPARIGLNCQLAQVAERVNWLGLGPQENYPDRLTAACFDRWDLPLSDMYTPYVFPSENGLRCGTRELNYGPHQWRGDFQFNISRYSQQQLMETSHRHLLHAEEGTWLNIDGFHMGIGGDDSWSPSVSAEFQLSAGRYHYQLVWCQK
compound,measurement,setting,value
"CC1O[C@@H](O[C@@H]2CO[C@@H](Oc3c(O)cc(-c4oc5cc(O)cc(O)c5c(=O)c4O[C@@H]4OC(C)[C@H](O)[C@H](O)C4O[C@@H]4OC(COC(=O)/C=C/c5ccc(O)c(O)c5)[C@@H](O)[C@@H](O)C4O[C@@H]4OC(CO)[C@@H](O)[C@@H](O)C4O)cc3O)C(O)[C@@H]2O)C(O)[C@@H](O)[C@H]1O (stereo partly shown) [Montbretin A, montbretin A]",increase in plasma glucose following starch administration,"[1]; 5 mg/kg, acute, STZ-diabetic rats",prevented the increase in plasma glucose
same,increase in plasma glucose following a starch challenge,"[1]; 10 mg/kg, oral gavage, acute, control and STZ-diabetic rats",effective in preventing the increase in plasma glucose
same,"effect on plasma glucose, area under the curve","[1]; lower doses (1 mg/kg, 0.5 mg/kg), STZ-diabetic rats",not particularly significant
same,remaining activity at 0.1 µM,[2],98%
